According to PubChem BioAssay (NCI):
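Each compound was tested at five concentrations against cells in 96-well plates for 48 hours. GI50: concentration for 50% inhibition of growth. The concentration for full growth arrest is given as TGI.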

What was measured:
Test in all cases: growth of human tumour cells (NCI), 48 h
NCI/ADR-RES ovarian = tested on: NCI/ADR-RES ovarian
HCT-116 colon = tested on: HCT-116 colon
KM12 colon = tested on: KM12 colon
LOX IMVI melanoma = tested on: LOX IMVI melanoma
CCRF-CEM leukemia = tested on: CCRF-CEM leukemia
SF-268 CNS = tested on: SF-268 CNS
DU-145 prostate = tested on: DU-145 prostate
SK-MEL-28 melanoma = tested on: SK-MEL-28 melanoma
EKVX NSCLC = tested on: EKVX NSCLC
UACC-257 melanoma = tested on: UACC-257 melanoma

SMILES | GI50 (NCI/ADR-RES ovarian) [µM] | TGI (NCI/ADR-RES ovarian) [µM] | GI50 (HCT-116 colon) [µM] | TGI (HCT-116 colon) [µM] | GI50 (KM12 colon) [µM] | TGI (KM12 colon) [µM] | GI50 (LOX IMVI melanoma) [µM] | TGI (LOX IMVI melanoma) [µM] | GI50 (CCRF-CEM leukemia) [µM] | TGI (CCRF-CEM leukemia) [µM] | GI50 (SF-268 CNS) [µM] | TGI (SF-268 CNS) [µM] | GI50 (DU-145 prostate) [µM] | TGI (DU-145 prostate) [µM] | GI50 (SK-MEL-28 melanoma) [µM] | TGI (SK-MEL-28 melanoma) [µM] | GI50 (EKVX NSCLC) [µM] | TGI (EKVX NSCLC) [µM] | GI50 (UACC-257 melanoma) [µM] | TGI (UACC-257 melanoma) [µM]
CS[C@@]1(C(=O)Nc2ccc3[nH]nc(-c4ccc(OC(C)C)nc4)c3c2)CCN(CC(=O)N2CC=C(c3ccc(-c4ncn(C)n4)cc3)CC2)C1 | 12.6 | > 100 | 0.161 | > 100 | 0.929 | > 100 | 0.204 | 8.28 | 12.5 | > 100 | > 100 | > 100 | > 100 | > 100 | 0.0293 | 0.441 |  |  |  | 
Oc1[nH]c2ccc(Cl)cc2c1/C=c1/ccc2c(c1)N=C(c1cc(F)cc(F)c1)N=2 | 2.32 | 5.87 |  |  | 3.55 | > 100 | 3.52 | > 100 |  |  | 3.7 | > 100 | 4.82 | > 100 | 5.06 | > 100 | 27.7 | > 100 |  | 
C[C@@H](Oc1cc(-c2cnn(C3CC4(CCCNC4)C3)c2)cnc1N)c1c(Cl)ccc(F)c1Cl (some centres not stated) | 2.25 | 5.59 | 0.741 | 2.23 | 0.0485 | 1.32 | 1.17 | 2.5 | 0.936 | 4.77 | 1.81 | 6.02 | 1.88 | 6.92 | 1.54 | 3.03 |  |  | 1.45 | 2.88
N#CC[C@H](C1CCCC1)n1cc(-c2ncnc3[nH]ccc23)cn1 | 19.4 | > 100 | 20.2 | > 100 | 2.71 | > 62.6 | 20.9 | > 100 | 29.1 | > 100 | 16.8 | > 77.9 | 19.3 | > 100 | 31.8 | > 100 | 14.9 | > 83.7 | 44.2 | > 100
O=C(/C=C/c1cccc(B(O)O)c1)c1cccc(B(O)O)c1 | 1.99 | 5.47 | 0.376 | 1.57 | 1.37 | 2.79 | 0.76 | 2.03 | 0.445 | 2.67 | 1.8 | 5.56 | 1.83 | 3.79 | 1.72 | 3.46 | 6.38 | 23.1 | 1.38 | 3.31
CCN1C(=O)N(CC)C2C1NN=c1s/c(=C\c3ccccc3)c(=O)n12 (configuration not stated) | 0.0799 | > 100 | 0.0786 | > 100 | 0.0705 | > 100 | 0.194 | > 100 | 0.232 | > 100 | 0.771 | > 100 | 0.308 | > 100 | > 49.1 | > 100 | 0.388 | > 100 | > 72.7 | > 100
CC(C)N(C[C@H]1O[C@@H](n2cnc3c(N)ncnc32)[C@H](O)[C@@H]1O)C1CC(CCc2nc3ccc(C(C)(C)C)cc3[nH]2)C1 (some centres not stated) | > 100 | > 100 | > 68 | > 100 | > 100 | > 100 | > 71.5 | > 100 | > 49.3 | > 84.4 | > 100 | > 100 | > 100 | > 100 | > 39.3 | > 54.1 |  |  | > 58.7 | > 100
CCOC(=O)C(Cc1ccc(OC)cc1)C(=O)OCC | 3.77 | 19 | 4.45 | 15.6 | 3.01 | 9.85 | 3.56 | 13.7 | 3.18 | 28.2 | 3.73 | 15.2 | 2.65 | 7.71 |  |  | 5.84 | 23.7 | 3.31 | 16.3
Cc1c(N2C(=O)/C(=C\c3ccc(N(C)C)cc3)N=C2c2ccccc2)c(=O)n(-c2ccccc2)n1C | 99.5 | > 100 | 33.7 | > 100 | 77.8 | > 100 | > 94.4 | > 100 |  |  | > 76.9 | > 100 | 71.3 | > 100 | > 100 | > 100 | 68.4 | > 100 | > 100 | > 100
Nc1cccc2nsnc12 |  | > 100 |  | > 100 |  | > 100 |  | > 100 |  | > 82.4 |  | > 100 |  | > 100 |  | > 100 |  | > 100 |  | > 100
CN1CCN(c2ccc3nc4c(nc3c2C(F)(F)F)C(=O)c2ncccc2C4=O)CC1 | 2.33 | 6.94 | 1.47 | 4.51 | 2.28 | 10.9 | 1.04 | 2.66 | 2.44 | 7.32 | 1.66 | 4.13 | 1.23 | 2.6 | 1.99 | 4.18 | 1.79 | 3.87 | 0.873 | 2.4
CC[C@H](C)[C@H](NC(=O)C12CC(NC(C)=O)(C1)C2)C(=O)N(C)[C@H](C[C@@H](OC(C)=O)c1nc(C(=O)N[C@@H](Cc2ccccc2)C[C@H](C)C(=O)OC)cs1)C(C)C | > 16.7 | > 16.7 | 0.101 | > 16.7 | 0.296 | > 16.7 | 0.229 | > 16.7 | 0.273 | > 16.7 | 0.809 | > 16.7 | 0.136 | > 10.7 | 1.81 | > 16.7 | 1.09 | > 16.7 | 7 | > 16.7
